Source: US20240208992A1, “MACROCYCLES AS CFTR MODULATORS” (Idorsia Pharmaceuticals Ltd, priority 2021, published 2024)
pEC50: −log10 of the molar value.

Molecular target: human F508del-CFTR (Homo sapiens, UniProt P13569, DEL508-508)
Test: F508del-CFTR cell surface expression (corrector activity), DiscoveRx ß-galactosidase complementation chemiluminescence assay in recombinant U2OS cell line;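 note: U2OS cells co-expressing ProLink-tagged F508del-CFTR and a membrane-anchored enzyme acceptor, where more surface CFTR restores β-galactosidase activity measured by chemiluminescence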
Settings: for pEC50: EC50, F508del-CFTR cell surface expression, U2OS cells, 16h compound incubation, geomean values; for Emax: U2OS, in relation to Emax of corrector lumacaftor (=100%), arithmetic mean values

Sequence of human F508del-CFTR (P13569 with tags, fused parts or gaps DEL508-508): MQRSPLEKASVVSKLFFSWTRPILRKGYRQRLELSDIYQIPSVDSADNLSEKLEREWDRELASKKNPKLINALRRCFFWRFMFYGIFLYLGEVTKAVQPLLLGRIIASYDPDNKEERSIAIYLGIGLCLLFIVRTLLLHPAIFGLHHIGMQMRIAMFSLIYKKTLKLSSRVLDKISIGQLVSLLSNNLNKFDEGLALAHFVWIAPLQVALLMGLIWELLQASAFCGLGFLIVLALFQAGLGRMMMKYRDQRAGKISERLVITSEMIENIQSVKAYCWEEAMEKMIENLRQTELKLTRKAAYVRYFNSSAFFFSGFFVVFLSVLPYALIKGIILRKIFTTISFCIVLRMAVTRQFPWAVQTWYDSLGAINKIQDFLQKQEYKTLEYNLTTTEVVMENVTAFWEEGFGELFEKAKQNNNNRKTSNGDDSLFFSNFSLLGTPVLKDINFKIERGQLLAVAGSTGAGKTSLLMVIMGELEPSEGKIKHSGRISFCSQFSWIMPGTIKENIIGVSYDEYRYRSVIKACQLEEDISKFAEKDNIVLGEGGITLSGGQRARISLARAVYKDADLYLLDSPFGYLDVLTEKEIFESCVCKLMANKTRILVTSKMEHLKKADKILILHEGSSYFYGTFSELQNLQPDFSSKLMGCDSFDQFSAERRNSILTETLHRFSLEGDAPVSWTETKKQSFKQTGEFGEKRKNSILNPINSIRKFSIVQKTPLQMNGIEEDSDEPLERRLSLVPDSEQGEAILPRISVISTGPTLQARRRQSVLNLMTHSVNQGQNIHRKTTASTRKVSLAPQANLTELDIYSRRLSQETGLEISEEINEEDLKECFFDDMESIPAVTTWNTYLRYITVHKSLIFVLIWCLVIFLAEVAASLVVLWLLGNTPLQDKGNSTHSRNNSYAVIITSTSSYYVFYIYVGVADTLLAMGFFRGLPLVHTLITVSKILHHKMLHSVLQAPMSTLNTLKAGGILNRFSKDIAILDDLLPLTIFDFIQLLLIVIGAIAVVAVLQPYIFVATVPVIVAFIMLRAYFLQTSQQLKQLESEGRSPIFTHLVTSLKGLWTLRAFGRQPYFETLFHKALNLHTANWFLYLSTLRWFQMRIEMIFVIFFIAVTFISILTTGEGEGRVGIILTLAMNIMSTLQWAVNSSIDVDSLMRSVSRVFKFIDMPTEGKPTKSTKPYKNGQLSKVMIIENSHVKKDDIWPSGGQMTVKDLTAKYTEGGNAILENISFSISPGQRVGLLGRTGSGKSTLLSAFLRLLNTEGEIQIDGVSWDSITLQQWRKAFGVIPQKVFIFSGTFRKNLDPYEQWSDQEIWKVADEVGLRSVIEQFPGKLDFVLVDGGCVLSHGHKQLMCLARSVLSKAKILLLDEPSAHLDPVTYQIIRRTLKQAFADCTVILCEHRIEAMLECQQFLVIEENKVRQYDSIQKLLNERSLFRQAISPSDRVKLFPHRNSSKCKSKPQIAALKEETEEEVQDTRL

`Cc1cc(CCNC(=O)[C@@H]2CC(=O)N(C)[C@@H](CC(C)C)C(=O)N(CCC3CCCCC3)CC(=O)N[C@H](Cc3ccccc3)COc3cnc4c(F)cccc4c3C(=O)N2)on1` [Example 411, (3S,7S,13R)-13-benzyl-9-(2-cyclohexylethyl)-18-fluoro-7-isobutyl-6-methyl-N-(2-(3-methylisoxazol-5-yl)ethyl)-1,5,8,11-tetraoxo-1,2,3,4,5,6,7,8,9,10,11,12,13,14-tetradecahydro-[1]oxa[4,7,10,14]tetraazacycloheptadecino[17,16-c]quinoline-3-carboxamide] gave a pEC50 of 6.86 and an Emax of 250%.
With `COc1cccc(CCNC(=O)[C@@H]2CC(=O)N(C)[C@@H](CC(C)C)C(=O)N3CCOC[C@@H]3C(=O)N[C@H](Cc3ccccc3)COc3cnc4ccccc4c3C(=O)N2)c1` [Example 412, (9S,13S,19aR,22R)-22-benzyl-13-isobutyl-N-(3-methoxyphenethyl)-12-methyl-7,11,14,20-tetraoxo-7,8,9,10,11,12,13,14,16,17,19,19a,20,21,22,23-hexadecahydro-[1,4]oxazino[3′,4′:6,7][1]oxa[4,7,10,14]tetraazacycloheptadecino[17,16-c]quinoline-9-carboxamide] the pEC50 was 6.42 and the Emax was 291%.
`COc1cccc(CCNC(=O)[C@@H]2CC(=O)N(C)[C@@H](CC(C)C)C(=O)N3CCOC[C@H]3C(=O)N[C@H](Cc3ccccc3)COc3cnc4ccccc4c3C(=O)N2)c1` [Example 413, (9S,13S,19aS,22R)-22-benzyl-13-isobutyl-N-(3-methoxyphenethyl)-12-methyl-7,11,14,20-tetraoxo-7,8,9,10,11,12,13,14,16,17,19,19a,20,21,22,23-hexadecahydro-[1,4]oxazino[3′,4′:6,7][1]oxa[4,7,10,14]tetraazacycloheptadecino[17,16-c]quinoline-9-carboxamide] showed a pEC50 of 6.25 and an Emax of 129%.
With `COCCN1CCN2C(=O)[C@H](CC(C)C)N(C)C(=O)C[C@@H](C(=O)NCCc3cccc(OC(F)F)c3)NC(=O)c3c(cnc4ccccc34)OC[C@@H](Cc3ccccc3)NC(=O)[C@H]2C1` [Example 414, (9S,13S,19aR,22R)-22-benzyl-N-(3-(difluoromethoxy)phenethyl)-13-isobutyl-18-(2-methoxyethyl)-12-methyl-7,11,14,20-tetraoxo-7,8,9,10,11,12,13,14,17,18,19,19a,20,21,22,23-hexadecahydro-16H-pyrazino[2′,1′:6,7][1]oxa[4,7,10,14]tetraazacycloheptadecino[17,16-c]quinoline-9-carboxamide] the pEC50 was 6.43 and the Emax was 251%.
Work on `COCCN1CCN2C(=O)[C@H](CC(C)C)N(C)C(=O)C[C@@H](C(=O)NCCc3nc4c(s3)CCC4)NC(=O)c3c(cnc4ccccc34)OC[C@@H](Cc3ccccc3)NC(=O)[C@H]2C1` [Example 415, (9S,13S,19aR,22R)-22-benzyl-N-(2-(5,6-dihydro-4H-cyclopenta[d]thiazol-2-yl)ethyl)-13-isobutyl-18-(2-methoxyethyl)-12-methyl-7,11,14,20-tetraoxo-7,8,9,10,11,12,13,14,17,18,19,19a,20,21,22,23-hexadecahydro-16H-pyrazino[2′,1′:6,7][1]oxa[4,7,10,14]tetraazacycloheptadecino[17,16-c]quinoline-9-carboxamide] yielded a pEC50 of 6.08 and an Emax of 274%.
Compound `COc1cccc(CCNC(=O)[C@@H]2CC(=O)N(C)[C@@H](CC(C)C)C(=O)N3CCN(CCO)C[C@@H]3C(=O)N[C@H](Cc3ccccc3)COc3ccc4ccccc4c3C(=O)N2)c1` [Example 416, (4aR,7R,18S,22S)-7-benzyl-3-(2-hydroxyethyl)-22-isobutyl-N-(3-methoxyphenethyl)-21-methyl-5,16,20,23-tetraoxo-2,3,4,4a,5,6,7,8,16,17,18,19,20,21,22,23-hexadecahydro-1H-naphtho[1,2-p]pyrazino[2,1-f][1]oxa[4,7,10,14]tetraazacycloheptadecine-18-carboxamide] has a pEC50 of 6.28 and an Emax of 345%.
`COc1cccc(CCNC(=O)[C@@H]2CC(=O)N(C)[C@@H](CC(C)C)C(=O)N3CCN(C4CC4)C[C@@H]3C(=O)N[C@H](Cc3ccccc3)COc3ccc4nc(C)oc4c3C(=O)N2)c1` [Example 417, (8S,12S,18aR,21R)-21-benzyl-17-cyclopropyl-12-isobutyl-N-(3-methoxyphenethyl)-4,11-dimethyl-6,10,13,19-tetraoxo-6,7,8,9,10,11,12,13,16,17,18,18a,19,20,21,22-hexadecahydro-15H-oxazolo[4′,5′:5,6]benzo[1,2-p]pyrazino[2,1-f][1]oxa[4,7,10,14]tetraazacycloheptadecine-8-carboxamide] gave a pEC50 of 6.36 and an Emax of 343%.
`CCOc1cccc(CCNC(=O)[C@@H]2CC(=O)N(C)[C@@H](CC(C)C)C(=O)N3CCN(C4CC4)C[C@@H]3C(=O)N[C@H](Cc3ccccc3)COc3ccc4nc(C)oc4c3C(=O)N2)c1` [Example 418, (8S,12S,18aR,21R)-21-benzyl-17-cyclopropyl-N-(3-ethoxyphenethyl)-12-isobutyl-4,11-dimethyl-6,10,13,19-tetraoxo-6,7,8,9,10,11,12,13,16,17,18,18a,19,20,21,22-hexadecahydro-15H-oxazolo[4′,5′:5,6]benzo[1,2-p]pyrazino[2,1-f][1]oxa[4,7,10,14]tetraazacycloheptadecine-8-carboxamide] showed a pEC50 of 6.56 and an Emax of 259%.
Compound `Cc1nc2ccc3c(c2o1)C(=O)N[C@H](C(=O)NCCc1cccc(OC(F)F)c1)CC(=O)N(C)[C@@H](CC(C)C)C(=O)N1CCN(C2CC2)C[C@@H]1C(=O)N[C@H](Cc1ccccc1)CO3` [Example 419, (8S,12S,18aR,21R)-21-benzyl-17-cyclopropyl-N-(3-(difluoromethoxy)phenethyl)-12-isobutyl-4,11-dimethyl-6,10,13,19-tetraoxo-6,7,8,9,10,11,12,13,16,17,18,18a,19,20,21,22-hexadecahydro-15H-oxazolo[4′,5′:5,6]benzo[1,2-p]pyrazino[2,1-f][1]oxa[4,7,10,14]tetraazacycloheptadecine-8-carboxamide] has a pEC50 of 6.45 and an Emax of 243%.
With `Cc1nc2ccc3c(c2o1)C(=O)N[C@H](C(=O)NCCc1nc2c(s1)CCC2)CC(=O)N(C)[C@@H](CC(C)C)C(=O)N1CCN(C2CC2)C[C@@H]1C(=O)N[C@H](Cc1ccccc1)CO3` [Example 420, (8S,12S,18aR,21R)-21-benzyl-17-cyclopropyl-N-(2-(5,6-dihydro-4H-cyclopenta[d]thiazol-2-yl)ethyl)-12-isobutyl-4,11-dimethyl-6,10,13,19-tetraoxo-6,7,8,9,10,11,12,13,16,17,18,18a,19,20,21,22-hexadecahydro-15H-oxazolo[4′,5′:5,6]benzo[1,2-p]pyrazino[2,1-f][1]oxa[4,7,10,14]tetraazacycloheptadecine-8-carboxamide] the pEC50 was 6.36 and the Emax was 231%.
`Cc1nc2ccc3c(c2o1)C(=O)N[C@H](C(=O)NCCc1ccc2c(c1)OCCO2)CC(=O)N(C)[C@@H](CC(C)C)C(=O)N1CCN(C2CC2)C[C@@H]1C(=O)N[C@H](Cc1ccccc1)CO3` [Example 421, (8S,12S,18aR,21R)-21-benzyl-17-cyclopropyl-N-(2-(2,3-dihydrobenzo[b][1,4]dioxin-6-yl)ethyl)-12-isobutyl-4,11-dimethyl-6,10,13,19-tetraoxo-6,7,8,9,10,11,12,13,16,17,18,18a,19,20,21,22-hexadecahydro-15H-oxazolo[4′,5′:5,6]benzo[1,2-p]pyrazino[2,1-f][1]oxa[4,7,10,14]tetraazacycloheptadecine-8-carboxamide] was tested, and the pEC50 was 6.41 and the Emax was 320%.
`Cc1nc2ccc3c(c2o1)C(=O)N[C@H](C(=O)NCCc1cccc(C(C)(F)F)c1)CC(=O)N(C)[C@@H](CC(C)C)C(=O)N(CCC1CCCCC1)CC(=O)N[C@H](Cc1ccccc1)CO3` [Example 422, (8R,14S,18S)-8-benzyl-12-(2-cyclohexylethyl)-N-(3-(1,1-difluoroethyl)phenethyl)-14-isobutyl-2,15-dimethyl-10,13,16,20-tetraoxo-7,8,9,10,11,12,13,14,15,16,17,18,19,20-tetradecahydrooxazolo[4′,5′:5,6]benzo[1,2-p][1]oxa[4,7,10,14]tetraazacycloheptadecine-18-carboxamide] was tested, and the pEC50 was 6.72 and the Emax was 193%.
In the case of `COc1cccc(CCNC(=O)[C@@H]2CC(=O)N(C)[C@@H](CC(C)C)C(=O)N3CCCC[C@@H]3C(=O)N[C@H](Cc3ccccc3)COc3ccc4c(cnn4C)c3C(=O)N2)c1` [Example 423, (8S,12S,18aR,21R)-21-benzyl-12-isobutyl-N-(3-methoxyphenethyl)-3,11-dimethyl-6,10,13,19-tetraoxo-6,7,8,9,10,11,12,13,16,17,18,18a,19,20,21,22-hexadecahydro-3H,15H-pyrido[2′,1′:6,7][1]oxa[4,7,10,14]tetraazacycloheptadecino[16,17-e]indazole-8-carboxamide], the pEC50 was 6.56 and the Emax was 239%.
`COc1cccc(CCNC(=O)[C@@H]2CC(=O)N(C)[C@@H](CC(C)C)C(=O)N3CCOC[C@@H]3C(=O)N[C@H](Cc3ccccc3)COc3ccc4c(cnn4C)c3C(=O)N2)c1` [Example 424, (8S,12S,18aR,21R)-21-benzyl-12-isobutyl-N-(3-methoxyphenethyl)-3,11-dimethyl-6,10,13,19-tetraoxo-6,7,8,9,10,11,12,13,15,16,18,18a,19,20,21,22-hexadecahydro-3H-[1,4]oxazino[3′,4′:6,7][1]oxa[4,7,10,14]tetraazacycloheptadecino[16,17-e]indazole-8-carboxamide] was tested, and the pEC50 was 6.08 and the Emax was 235%.
`COc1cccc(CCNC(=O)[C@@H]2CC(=O)N(C)[C@@H](CC(C)C)C(=O)N3CCN(CC4CC4)C[C@@H]3C(=O)N[C@H](Cc3ccccc3)COc3ccc4nc(C)oc4c3C(=O)N2)c1` [Example 425, (8S,12S,18aR,21R)-21-benzyl-17-(cyclopropylmethyl)-12-isobutyl-N-(3-methoxyphenethyl)-4,11-dimethyl-6,10,13,19-tetraoxo-6,7,8,9,10,11,12,13,16,17,18,18a,19,20,21,22-hexadecahydro-15H-oxazolo[4′,5′:5,6]benzo[1,2-p]pyrazino[2,1-f][1]oxa[4,7,10,14]tetraazacycloheptadecine-8-carboxamide] was tested, and the pEC50 was 6.46 and the Emax was 364%.
